Results taken from US20200247897A1, “THERAPEUTIC ANTIBODIES BASED ON MUTATED IGG HEXAMERS” (GENMAB B.V., priority 2017, published 2020).
Read-outs that look alike come from different tables or passages of the source.

Tests used:
SW480 = assay: Drug combination screen (ATPlite, Synergy Score), SW480; type: cell-based, human
HCT 116 = assay: Drug combination screen (ATPlite, Synergy Score), HCT 116
DLD-1 = assay: Drug combination screen (ATPlite, Synergy Score), DLD-1
SNU-C2B = assay: Drug combination screen (ATPlite, Synergy Score), SNU-C2B
LS-411N = assay: Drug combination screen (ATPlite, Synergy Score), LS-411N; type: cell-based, human
[1] = compound in combination with IgG1-hDR5-01-G56T-E430G + IgG1-hDR5-05-E430G, SW480, 72 hour ATPlite, 6x6 matrix
[2] = compound in combination with IgG1-hDR5-01-G56T-E430G + IgG1-hDR5-05-E430G, HCT 116, 120 hour ATPlite, 6x6 matrix
[3] = compound in combination with IgG1-hDR5-01-G56T-E430G + IgG1-hDR5-05-E430G, DLD-1, 120 hour ATPlite, 6x6 matrix
[4] = compound in combination with IgG1-hDR5-01-G56T-E430G + IgG1-hDR5-05-E430G, SNU-C2B, 72 hour ATPlite, 6x6 matrix
[5] = compound in combination with IgG1-hDR5-01-G56T-E430G + IgG1-hDR5-05-E430G, LS-411N, 72 hour ATPlite, 6x6 matrix

| Molecule | Synergy Score SW480 (SW480; [1]) | Synergy Score HCT-116 (HCT 116; [2]) | Synergy Score DLD-1 (DLD-1; [3]) | Synergy Score SNU-C2B (SNU-C2B; [4]) | Synergy Score LS-411N (LS-411N; [5]) | Synergy Score SW480 (SW480) | Synergy Score HCT-116 (HCT 116) | Synergy Score DLD-1 (DLD-1) | Synergy Score SNU-C2B (SNU-C2B) | Synergy Score LS-411N (LS-411N) |
| --- | --- | --- | --- | --- | --- | --- | --- | --- | --- | --- |
| COc1ccc(-c2ccc3c(N4CCOC[C@@H]4C)nc(N4CCOC[C@@H]4C)nc3n2)cc1CO [AZD 8055] | 3.9 | 1.7 | 3 | 12.2 | 10 |  |  |  |  |  |
| C[C@]1(O)C[C@@H](c2nc(-c3ccc4ccc(-c5ccccc5)nc4c3)c3c(N)nccn32)C1 [OSI-906] | 3.5 | 0.1 | 0.5 | 1 | 1.7 |  |  |  |  |  |
| COc1cccc2c1C(=O)c1c(O)c3c(c(O)c1C2=O)C[C@@](O)(C(=O)CO)C[C@@H]3O[C@H]1C[C@H](N)[C@H](O)[C@H](C)O1 [Doxorubicin] | 20.5 | 4.6 | 16.2 | 18 | 9.4 |  |  |  |  |  |
| O=C(CCCCCCC(=O)Nc1ccccc1)NO | 7.3 | 2.5 | 4.4 | 11 | 4.4 |  |  |  |  |  |
| CCCS(=O)(=O)Nc1ccc(F)c(C(=O)c2c[nH]c3ncc(-c4ccc(Cl)cc4)cc23)c1F [PLX-4032] | 1 | 0.1 | 0.6 | 0.5 | 0.6 |  |  |  |  |  |
| CS(=O)(=O)N1CCN(Cc2cc3nc(-c4cccc5[nH]ncc45)nc(N4CCOCC4)c3s2)CC1 [GDC-0941] | 12.9 | 2 | 4.9 | 7.1 | 12.4 |  |  |  |  |  |
| CC1=C(C(=O)Nc2cc3cn[nH]c3cc2F)C(c2ccc(C(F)(F)F)cc2)CC(=O)N1 (stereo not drawn) [Compound G5K429286A] | 5.3 | 2.6 | 4.9 | 5.3 | 9.8 |  |  |  |  |  |
| O=C1NC(=O)C(c2ccccc2[N+](=O)[O-])=C1Nc1ccc(O)c(Cl)c1 [SB 415286] | 3.8 | 0.8 | 0.4 | 0.7 | 2.1 |  |  |  |  |  |
| Oc1c2ccccc2c2c3c(cccc13)N=N2 [SP 600125] | 0.9 | 0.6 | 3.3 | 2 | 0.5 |  |  |  |  |  |
| Nc1cccc2c1CN(C1CCC(=O)NC1=O)C2=O (stereo not drawn) [Lenalidomide] | 0 | 0 | 0 | 0.2 | 0.1 |  |  |  |  |  |
| Cn1c2ccccc2c2c3c(c4c5ccccc5n(CCC#N)c4c21)CNC3=O [Go 6976] | 3.1 | 0.9 | 2.9 | 1.7 | 1.9 |  |  |  |  |  |
| CC[C@@]1(O)C(=O)OCc2c1cc1n(c2=O)Cc2cc3cc(O)ccc3nc2-1 [10-Hydroxycamptothecin] |  |  |  |  |  | 30.1 | 9.6 | 21.9 | 12.4 | 16.9 |
| COCCn1c2c([n+](Cc3cnccn3)c1C)C(=O)c1ccccc1C2=O [YM155] | 12.1 | 0.5 | 5.2 | 11.5 | 9 |  |  |  |  |  |
| N.N.O=C([O-])C1(C(=O)[O-])CCC1.[Pt+2] [Carboplatin] | 19.5 | 5.8 | 11.3 | 11.6 | 12 |  |  |  |  |  |
| COc1cc2nccc(Oc3ccc(NC(=O)C4(C(=O)Nc5ccc(F)cc5)CC4)cc3)c2cc1OC [XL184] | 6 | 1 | 4.1 | 1.5 | 5.8 |  |  |  |  |  |
| Cc1ccc(NC(=O)c2ccc(CN3CCN(C)CC3)cc2)cc1Nc1nc(-c2cccnc2)cs1 [Masitinib] | 1.9 | 0.3 | 0.6 | 1.7 | 1.4 |  |  |  |  |  |
| CC(C)=CCC/C(C)=C/CC/C(C)=C/CSc1ccccc1C(=O)O [Salirasib] | 0.4 | 0.1 | 0.1 | 0.4 | 0 |  |  |  |  |  |

| Molecule | Synergy Score SW480 (SW480; [1]) | Synergy Score HCT-116 (HCT 116; [2]) | Synergy Score DLD-1 (DLD-1; [3]) | Synergy Score SNU-C2B (SNU-C2B; [4]) | Synergy Score LS-411N (LS-411N; [5]) | Synergy Score SW480 (SW480) | Synergy Score HCT-116 (HCT 116) | Synergy Score DLD-1 (DLD-1) | Synergy Score SNU-C2B (SNU-C2B) | Synergy Score LS-411N (LS-411N) |
| --- | --- | --- | --- | --- | --- | --- | --- | --- | --- | --- |
| CCN1CCN(c2ccc(Nc3cc(N(C)C(=O)Nc4c(Cl)c(OC)cc(OC)c4Cl)ncn3)cc2)CC1 [BGJ398] | 1.6 | 0.1 | 1 | 0.8 | 1.4 |  |  |  |  |  |
| IC-87114 | 0 | 0.1 | 0 | 0.1 | 0.2 |  |  |  |  |  |
| Cn1c(=O)n(-c2ccc(C(C)(C)C#N)cc2)c2c3cc(-c4cnc5ccccc5c4)ccc3ncc21 [BEZ235] | 3.2 | 1.4 | 2.4 | 5.4 | 1.1 |  |  |  |  |  |
| CO[C@H]1C[C@@H]2CC[C@@H](C)[C@@](O)(O2)C(=O)C(=O)N2CCCC[C@H]2C(=O)O[C@H]([C@H](C)C[C@@H]2CC[C@@H](OCCO)[C@H](OC)C2)CC(=O)[C@H](C)/C=C(\C)[C@@H](O)[C@@H](OC)C(=O)[C@H](C)C[C@H](C)/C=C/C=C/C=C/1C [Everolimus] | 1.6 | 0.4 | 0.4 | 3.2 | 0.3 |  |  |  |  |  |
| O=C(c1cc(Cc2n[nH]c(=O)c3ccccc23)ccc1F)N1CCN(C(=O)C2CC2)CC1 [Olaparib] | 1 | 1.8 | 0.7 | 2.5 | 2.7 |  |  |  |  |  |
| Cn1c(Nc2ccc(C(F)(F)F)cc2)nc2cc(Oc3ccnc(-c4ncc(C(F)(F)F)[nH]4)c3)ccc21 [RAF265] | 4.5 | 2.5 | 5.6 | 3.7 | 10.5 |  |  |  |  |  |
| C[C@@H]1CCN(C(=O)CC#N)C[C@@H]1N(C)c1ncnc2[nH]ccc12 [CP-690550] | 0 | 0 | 0.1 | 0.1 | 0.6 |  |  |  |  |  |
| C[C@H](Nc1ncnc2nc[nH]c12)c1cc2cccc(Cl)c2c(=O)n1-c1ccccc1 [IPI-145] | 0.1 | 0 | 0 | 1 | 0.2 |  |  |  |  |  |
| C[C@]12C=CC(=O)C=C1CC[C@@H]1[C@@H]2C(=O)C[C@@]2(C)[C@H]1CC[C@]2(O)C(=O)CO [Prednisone] | 0 | 0 | 0.1 | 0.2 | 0.1 |  |  |  |  |  |
| CS(=O)(=O)c1ccc(C(=O)Nc2ccc(Cl)c(-c3ccccn3)c2)c(Cl)c1 [GDC-0449] | 0.1 | 0 | 0.1 | 0.3 | 0.2 |  |  |  |  |  |
| CCc1cc(Nc2nccc(-c3c(-c4ccc(OC)c(C(=O)Nc5c(F)cccc5F)c4)nc4ccccn34)n2)c(OC)cc1N1CCC(N2CCN(S(C)(=O)=O)CC2)CC1 [GSK1904529A] | 2.2 | 0.2 | 1.4 | 2.7 | 6 |  |  |  |  |  |
| CC(=O)O[C@@]12CO[C@@H]1C[C@H](O)[C@@]1(C)C(=O)[C@H](O)C3=C(C)[C@@H](OC(=O)[C@H](O)[C@@H](NC(=O)OC(C)(C)C)c4ccccc4)C[C@@](O)([C@@H](OC(=O)c4ccccc4)[C@H]21)C3(C)C [docetaxel] | 19.5 | 7.9 | 17.6 | 15.8 | 36.2 |  |  |  |  |  |
| C=CCc1cccc(/C=N/NC(=O)CN2CCN(Cc3ccccc3)CC2)c1O [PAC 1] | 3.9 | 4.2 | 10.6 | 6 | 2.9 |  |  |  |  |  |
| Cn1cc(-c2ccc3nnc(C(F)(F)c4ccc5ncccc5c4)n3n2)cn1 [JNJ-38877605] | 0 | 0 | 0.1 | 0.1 | 0.1 |  |  |  |  |  |
| C[C@@H](Oc1cc(-c2cnn(C3CCNCC3)c2)cnc1N)c1c(Cl)ccc(F)c1Cl [Crizotinib] | 8.9 | 7.7 | 13.4 | 5.4 |  |  |  |  |  |  |
| C[C@]1(c2nc3c(C(N)=O)cccc3[nH]2)CCCN1 [ABT-888] | 0 |  |  | 0.1 | 0.7 |  |  |  |  |  |
| TW-37 | 10.5 | 5.4 |  |  | 29.9 |  |  |  |  |  |
